Source: US8604218B2, “Cytoskeletal active rho kinase inhibitor compounds, composition and use” (Inspire Pharmaceuticals, Inc., priority 2006, dated 2013)

What was measured:
ROCK2 = ROCK2 (Homo sapiens (Human), UniProt O75116); assay: Rho Kinase Inhibition Assay (IMAP fluorescence polarization); assay type: biochemical; settings: isolated enzyme, 10 μM ATP, 60 minutes at room temperature
NIH/3T3 cells = assay: NIH/3T3 Cell Morphology Assay (actin disruption); assay type: cell-based; settings: 1 μM test compound, 60 minutes at 37° C.; score of actin cytoskeleton disruption from 0 (no effect) to 4 (complete disruption), average of at least 2 determinations
Procedure: NIH/3T3 cells were grown in DMEM-H containing glutamine and 10% Colorado Calf Serum. Cells were passaged regularly prior to reaching confluence. Eighteen to 24 hours prior to experimentation, the cells were plated onto Poly-L-Lysine-coated glass bottom 24-well plates. On the day of experimentation, the cell culture medium was removed and was replaced with the same medium containing from 10 nM to 25 μM of the test compound, and the cells were incubated for 60 minutes at 37° C. The culture medium was then removed and the cells were washed with warmed PBS and fixed for 10 minutes with warmed 4% paraformaldehyde. The cells were permeabilized with 0.5% Triton-X, stained with TRITC-conjugated phalloidin and imaged using a Nikon Eclipse E600 epifluorescent microscope to determine the degree of actin disruption. Results were expressed as a numerical score indicating the observed degree of disruption of the actin cytoskeleton at the test concentration, ranging from 0 (no effect) to 4 (complete disruption), and were the average of at least 2 determinations.
All compounds tested show measurable activity in the cell morphology assay, with most of the compounds providing substantial effects on the actin cytoskeleton at the testing concentration (score of 2 at 1 μM). […] These morphology changes are thought to provide the basis for the beneficial pharmacological effects sought in the setting of the disease processes described in this application, specifically the lowering of elevated IOP in hypertensive eyes via increased outflow through the trabecular meshwork.

Chain of ROCK2 (O75116 11-552): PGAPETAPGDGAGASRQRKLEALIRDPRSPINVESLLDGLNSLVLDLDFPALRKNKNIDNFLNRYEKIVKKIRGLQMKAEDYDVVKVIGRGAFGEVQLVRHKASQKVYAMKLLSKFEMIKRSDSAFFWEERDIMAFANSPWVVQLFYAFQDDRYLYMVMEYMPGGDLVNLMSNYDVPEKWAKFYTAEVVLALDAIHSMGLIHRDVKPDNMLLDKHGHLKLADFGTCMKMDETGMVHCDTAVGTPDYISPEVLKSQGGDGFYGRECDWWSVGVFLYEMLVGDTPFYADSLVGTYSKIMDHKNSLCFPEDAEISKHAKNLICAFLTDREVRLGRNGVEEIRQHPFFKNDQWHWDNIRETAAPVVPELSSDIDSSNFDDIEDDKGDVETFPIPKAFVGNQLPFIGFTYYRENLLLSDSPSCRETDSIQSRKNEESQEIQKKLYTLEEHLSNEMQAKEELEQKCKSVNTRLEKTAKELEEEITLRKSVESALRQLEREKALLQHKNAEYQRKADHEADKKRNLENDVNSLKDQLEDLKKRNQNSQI

## CSc1ccc(CN2CC[C@@H](Nc3cccc4cnccc34)C2)cc1 [Compound 2.026, (R)-N-(1-(4-(methylthio)benzyl)pyrrolidin-3-yl)isoquinolin-5-amine]
ROCK2
  IC50: 6.33 µM
NIH/3T3 cells
  Cell score at 1 μM: 2
